In general, IC50 refers to the concentration needed to halve the response being measured.

Results on 13 compounds are retold here after patent US11040028B2, “Penicinotam derivative, preparation method and use thereof” (OCEAN UNIVERSITY OF CHINA, priority 2017, dated 2021).

Molecules are shown by their SMILES. Where only a bound is given, the exact number is not on record here.

What all share (assay type): cell-based
The subject of assay [1] is BHK-21 cells. The assay is described as follows: Anti-fibrosis activity test: inhibition of BHK-21 cell proliferation (CCK-8). Conditions: Mesocricetus auratus, BHK-21, 48 h, CCK-8, 48 hours after administration. In outline: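 Proliferation of BHK-21 cells is measured by CCK-8 at 450 nm following 48 h compound exposure at several concentrations. Inhibition is expressed relative to blank control and IC50 is computed from it.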

Assay [2] concerns human lung fibroblasts HFL1. Put plainly: Anti-fibrosis activity test: inhibition of proliferation of human lung fibroblasts HFL1 (CCK-8). Conditions: Homo sapiens, HFL1, 48 h, human lung fibroblasts HFL1, CCK-8, 48 hours. In outline: (§1)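 Proliferation inhibition is measured by CCK-8 after cells plated at 2×10^4 cells/mL attach overnight (24 h) and then receive test compounds for 48 h at several concentrations, each in triplicate. Optical density at 450 nm gives IR = (1−Ai/Ao)×100%, from which IC50 is computed.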

The test system of assay [3] is human hepatic stellate cells LX-2. Put plainly: Anti-fibrosis activity test: inhibition of proliferation of human hepatic stellate cells LX-2 (CCK-8). Particulars: Homo sapiens, 48 h, human hepatic stellate cells LX-2, CCK-8, 48 hours. In outline: as §1
Assay [4] concerns human fibrosarcoma cells HT-1080. The assay is described as follows: Anti-fibrosis activity test: inhibition of proliferation of human fibrosarcoma cells HT-1080 (CCK-8). Conditions: Homo sapiens, HT-1080, 48 h, human fibrosarcoma cells HT-1080, CCK-8, 48 hours. In outline: as §1
The test system of assay [5] is human dermal fibroblasts CCC-ESF-1. Put plainly: Anti-fibrosis activity test: inhibition of proliferation of human dermal fibroblasts CCC-ESF-1 (CCK-8). Conditions: Fibroblast; human dermal fibroblasts CCC-ESF-1, CCK-8, 48 hours. In outline: as §1
Assay [6] concerns human embryonic lung fibroblast IMR-90. Put plainly: Anti-fibrosis activity test: inhibition of proliferation of human embryonic lung fibroblast IMR-90 (CCK-8). Conditions: human embryonic lung fibroblast IMR-90, CCK-8, 48 hours. In outline: as §1
The subject of assay [7] is cardiac fibroblast RAT-iCell-C002. Put plainly: Anti-fibrosis activity test: inhibition of proliferation of cardiac fibroblast RAT-iCell-C002 (CCK-8). Conditions: Cardiac fibroblast, 48 h, cardiac fibroblast RAT-iCell-C002, CCK-8, 48 hours. In outline: as §1
Assay [8] relates to mouse macrophages (RAW264.7). Put plainly: Lipopolysaccharide-induced NO secretion in macrophages (Griess). Particulars: Mus musculus, RAW264.7, 24 h, RAW264.7, LPS 1 μg/ml, a/b isomers given as first/second symbol, read-out: IC50 (μM), inhibition of lipopolysaccharide-induced NO secretion in macrophages. In outline:
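Indomethacin and resveratrol served as positive controls while compounds were tested across concentrations on LPS-stimulated (1 μg/ml, 24 h) RAW264.7 cells. NO output was quantified colorimetrically (Griess, 548 nm).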
For orientation: Nitrite, measured by Griess reagent, commonly stands in for NO production.

On to `O=C1c2c(n(C3CC3)c3cc(N4CCNCC4)c(F)cc3c2=O)-c2cccn21` [Compound 340a, 4-Cyclopropyl-7-fluoro-6-(piperazin-1-yl)-9H-pyrrolizino[1,2-b]quinoline-9,10(4H)-dione], for which the IC50 in assay [1] lay in the range of 0.05 to 5 mM; in assay [2] it was 0.05 to 5 mM; in assay [3], 0.05 to 5 mM; in assay [4] it was 5 to 20 mM; in assay [5], 0.05 to 5 mM; in assay [6], 0.05 to 5 mM. For the same compound, the IC50 in assay [7] fell in the range of 0.05 to 5 mM; in assay [8], 0.1 to 1 µM.

For the compound `O=C1c2c(nc3cc(N4CCNCC4)c(F)cc3c2OC2CC2)-c2cccn21` [Compound 340b, 9-cyclopropoxy-7-fluoro-6-(piperazin-1-yl)-10H-pyrrolizino[1,2-b]quinolin-10-one], the IC50 in assay [1], in assay [2], in assay [3], in assay [4], in assay [5] and in assay [6] was 0.05 to 5 mM in each case. Also, the IC50 in assay [7] lay within 0.05 to 5 mM; in assay [8], 1 to 10 µM.

`O=C1c2c(n(C(=O)c3ccco3)c3cc(N4CCNCC4)c(F)cc3c2=O)-c2cccn21` [Compound 343a, 7-Fluoro-4-(furan-2-carbonyl)-6-(piperazin-1-yl)-9H-pyrrolizino[1,2-b]quinoline-9,10(4H)-dione]: the IC50 in assay [1] is 0.05 to 5 mM; in assay [2], 0.05 to 5 mM; in assay [3], 0.05 to 5 mM; in assay [4], < 0.05 mM; in assay [5], 0.05 to 5 mM; in assay [6], 0.05 to 5 mM. The values for the IC50 in assay [7] and in assay [8] were 0.05 to 5 mM and 1 to 10 µM, respectively.

For the compound `O=C(Oc1c2c(nc3cc(N4CCNCC4)c(F)cc13)-c1cccn1C2=O)c1ccco1` [Compound 343b, 7-fluoro-10-oxo-6-(piperazin-1-yl)-10H-pyrrolizino[1,2-b]quinolin-9-ylfuran-2-carboxylate], the half-maximal inhibitory concentration (IC50) in assay [1], in assay [2], in assay [3], in assay [4], in assay [5] and in assay [6] was 0.05 to 5 mM each time. Besides, the figures for the IC50 in assay [7] and in assay [8] were 0.05 to 5 mM and 1 to 10 µM, respectively.

In the case of `O=C1c2c(n(CCO)c3cc(N4CCNCC4)c(F)cc3c2=O)-c2cccn21` [Compound 348a, 7-Fluoro-4-(2-hydroxyethyl)-6-(piperazin-1-yl)-9H-pyrrolizino[1,2-b]quinoline-9,10(4H)-dione], the IC50 fell in the range of 20 to 100 mM in assay [1]; 0.05 to 5 mM in assay [2]; 0.05 to 5 mM in assay [3]; 0.05 to 5 mM in assay [4]; 0.05 to 5 mM in assay [5]; 0.05 to 5 mM in assay [6]. The figures for the concentration for half-maximal inhibition (IC50) in assay [7] and in assay [8] were 0.05 to 5 mM and 1 to 10 µM, respectively.

`O=C1c2c(nc3cc(N4CCNCC4)c(F)cc3c2OCCO)-c2cccn21` [Compound 348b, 7-fluoro-9-(2-hydroxyethoxy)-6-(piperazin-1-yl)-10H-pyrrolizino[1,2-b]quinolin-10-one]: the IC50 in assay [1] was 0.05 to 5 mM; in assay [2], 0.05 to 5 mM; in assay [3] it was < 0.05 mM; in assay [4] it was 0.05 to 5 mM; in assay [5] it was 0.05 to 5 mM; in assay [6] it was 0.05 to 5 mM. Further, the IC50 in assay [7] lay in the range of 0.05 to 5 mM; in assay [8], 1 to 10 µM.

Take `C=CCn1c2c(c(=O)c3cc(F)c(N4CCNCC4)cc31)C(=O)n1cccc1-2` [Compound 349a, 4-Allyl-7-fluoro-6-(piperazin-1-yl)-9H-pyrrolizino[1,2-b]quinoline-9,10(4H)-dione]: the IC50 in assay [1], in assay [2], in assay [3], in assay [4], in assay [5] and in assay [6] was 0.05 to 5 mM each time. Moreover, the half-maximal inhibitory concentration (IC50) in assay [7] fell in the range of 0.05 to 5 mM; in assay [8] it was 1 to 10 µM.

For `C=CCOc1c2c(nc3cc(N4CCNCC4)c(F)cc13)-c1cccn1C2=O` [Compound 349b, 9-(allyloxy)-7-fluoro-6-(piperazin-1-yl)-10H-pyrrolizino[1,2-b]quinolin-10-one], the IC50 in assay [1], in assay [2], in assay [3], in assay [4], in assay [5] and in assay [6] was 0.05 to 5 mM in each case. Besides, the half-inhibitory concentration (IC50) in assay [7] lay in the range of 0.05 to 5 mM; in assay [8], 1 to 10 µM.

In the case of `CC(C)=CCn1c2c(c(=O)c3cc(F)c(N4CCNCC4)cc31)C(=O)n1cccc1-2` [Compound 354a, 7-Fluoro-4-(3-methylbut-2-en-1-yl)-6-(piperazin-1-yl)-9H-pyrrolizino[1,2-b]quinoline-9,10(4H)-dione], the IC50 in assay [1] was 0.05 to 5 mM; in assay [2], 0.05 to 5 mM; in assay [3], 5 to 20 mM; in assay [4], 0.05 to 5 mM; in assay [5], 0.05 to 5 mM; in assay [6], 0.05 to 5 mM. The values for the concentration for half-maximal inhibition (IC50) in assay [7] and in assay [8] were < 0.05 mM and 1 to 10 µM, respectively.

`CC(C)=CCOc1c2c(nc3cc(N4CCNCC4)c(F)cc13)-c1cccn1C2=O` [Compound 354b, 7-fluoro-9-((3-methylbut-2-en-1-yl)oxy)-6-(piperazin-1-yl)-10H-pyrrolizino[1,2-b]quinolin-10-one]: the 50% inhibitory concentration (IC50) in assay [1] fell in the range of 0.05 to 5 mM; in assay [2] it was 0.05 to 5 mM; in assay [3], 5 to 20 mM; in assay [4] it was 0.05 to 5 mM; in assay [5], 0.05 to 5 mM; in assay [6], 0.05 to 5 mM. In addition, the concentration for half-maximal inhibition (IC50) in assay [7] lay in the range of 0.05 to 5 mM; in assay [8], 1 to 10 µM.

For `Cn1c2c(c(=O)c3cc(F)c(N4CCNCC4)cc31)C(=O)n1cccc1-2` [Compound 361a, 7-Fluoro-4-methyl-6-(piperazin-1-yl)-9H-pyrrolizino[1,2-b]quinoline-9,10(4H)-dione], the IC50 in assay [1] is 0.05 to 5 mM; in assay [2], 0.05 to 5 mM; in assay [3] it was 0.05 to 5 mM; in assay [4] it was < 0.05 mM; in assay [5], 0.05 to 5 mM; in assay [6], 0.05 to 5 mM. In addition, the IC50 in assay [7] was 0.05 to 5 mM; in assay [8], 1 to 10 µM.

In the case of `COc1c2c(nc3cc(N4CCNCC4)c(F)cc13)-c1cccn1C2=O` [Compound 361b, 7-fluoro-9-methoxy-6-(piperazin-1-yl)-10H-pyrrolizino[1,2-b]quinolin-10-one], the half-maximal inhibitory concentration (IC50) is 0.05 to 5 mM in assay [1]; 0.05 to 5 mM in assay [2]; 5 to 20 mM in assay [3]; 0.05 to 5 mM in assay [4]; 0.05 to 5 mM in assay [5]; 0.05 to 5 mM in assay [6]. Moreover, the half-inhibitory concentration (IC50) was in the range of 0.05 to 5 mM in assay [7] and 1 to 10 µM in assay [8].

In the case of `O=C1c2c([nH]c3cc(N4CCNCC4)c(Cl)cc3c2=O)-c2cccn21` [Compound 373a, 7-Chloro-6-(piperazin-1-yl)-9H-pyrrolizino[1,2-b]quinoline-9,10(4H)-dione], the 50% inhibitory concentration (IC50) in assay [1], in assay [2], in assay [3], in assay [4], in assay [5] and in assay [6] was 0.05 to 5 mM throughout. Also, the 50% inhibitory concentration (IC50) in assay [7] was 0.05 to 5 mM; in assay [8], 0.1 to 1 µM.
